Legend:
mushroom tyrosinase = assay: Tyrosinase inhibitory activity (L-DOPA, DOPA chrome at 475 nm); type: biochemical; conditions: for tyrosinase inhibitory activity: Example 1, FIG. 1; for Inhibitory Activity (%): Example 2, Table 2
Method: In the reaction mixture, 0.5 ml of 0.175 M sodium phosphate buffer (pH 6.8), 0.2 ml of a substrate solution containing 10 mM L-DOPA, and 0.1 ml of the sample solution were mixed, followed by the addition of 0.2 ml of mushroom tyrosinase (110 unit/ml). The reaction was carried out for 2 minutes at 25° C., and the DOPA chrome produced in the reaction mixture was measured at 475 nm. Tyrosinase inhibitory activity was expressed as the percentage reduction in absorbance compared to the control group without sample solution.

MNT-1 cells [1] = assay: Cell viability / cytotoxicity, MTT assay; type: cell-based, human; conditions: MNT-1, 72 hours
Method: To examine the cell toxicity of procyanidin A2, quercetin, and their combination, a cell viability analysis was conducted. Specifically, cell survival and cytotoxicity were measured using the 3-(4,5-dimethylthiazol-2-yl)-2,5-diphenyltetrazoliumbromide (MTT) Assay. MNT-1 cells were seeded in a 96 well plate at 1×10^5 cells/well and cultured for 24 hours in a 37° C., 5% CO2 incubator. After that, each compound was treated according to Table 4 and cultured for 72 hours. Then, MTT solution at a final concentration of 0.5 mg/ml was added and reacted for 4 hours at 37° C. The media containing MTT solution was removed, and 100 μl of DMSO was treated in each well to dissolve the formazan precipitate formed in reaction with the living cells. Absorbance was measured at 550 nm using an ELISA reader (CLARIOstar Plus, BMG LABTECH, Germany).

MNT-1 cells [2] = assay: Melanin production in MNT-1 cells (absorbance 490 nm); type: cell-based, human; conditions: MNT-1, 72 hours
Method: The melanin inhibitory effects of each substance were confirmed through an analysis of melanin production following treatment with procyanidin A2, quercetin, and their combination. Specifically, MNT-1 cells (human-derived melanoma skin cells) were treated for 72 hours with procyanidin A2, quercetin, and the combination at the maximum concentration without cytotoxicity according to Table 5. The negative control group was untreated, and arbutin, a tyrosinase inhibitor, was used as the positive control. Afterward, the media was removed, the cell bodies were dissolved with 1 N NaOH, heated at 95° C. for 5 minutes, and the absorbance was measured at 490 nm using a microplate reader (Molecular Devices, Sunnyvale, CA, USA).

[3] = test system: tyrosinase, TRP-1, TRP-2, MITF in MNT-1 cells; assay: Melanin synthesis-related protein expression (western blot); type: cell-based, human; conditions: MNT-1, FIG. 5
Method: (§1) Specifically, after treating with procyanidin A2, quercetin, and the combination, MNT-1 cells were washed twice in ice-cold PBS and lysed in ice-cold RIPA buffer (Sigma-Aldrich). Protein concentration was measured using a Bicinchoninic acid (BCA) protein assay kit (Pierce, Rockford, IL, USA), and 35 μg of protein was separated using sodium dodecyl sulfate-polyacrylamide gel electrophoresis (10%) and transferred to a nitrocellulose membrane (Whatman, Dassel, Germany). The membrane was blocked in 5% non-fat milk in TBST buffer (1:5000) and then treated with primary (1:1000) and secondary antibodies (Table 6). Protein bands were detected using SuperSignal West Femto maximum sensitivity substrate (Thermo Fisher Scientific, Rockford, IL, USA) and quantified using Image Lab™ software (version 5.2.1).

[4] = test system: LC3-II, ATG5, Beclin-1, p62, LC3-I in MNT-1 cells; assay: Autophagy activity-related protein expression (western blot); type: cell-based, human; conditions: for expression levels of LC3-II, ATG5, and Beclin-1: MNT-1, FIG. 6
Method: as §1
LC3-II, ATG5, and Beclin-1 are involved in the formation of autophagosomes and activate autophagy. In contrast, p62 and LC3-I, which show characteristics of being decomposed during autophagosome formation, decrease when autophagy activate. To verify the autophagy activity of procyanidin A2, quercetin, and their combination, the expression levels of autophagy-activity-related proteins were analyzed. The specific method for this experiment, except for using Table 8 for antibodies, was conducted in the same manner as the method in Example 5 for the analysis of melanin synthesis-related protein expression.

[5] = procyanidin A2 only, 50 μM, MNT-1

tyrosinase inhibitory activity (mushroom tyrosinase; 2.5 μM) [%] | Inhibitory Activity (%) (mushroom tyrosinase; 2.5 μM) | tyrosinase inhibitory activity (mushroom tyrosinase; 5 μM) [%] | Inhibitory Activity (%) (mushroom tyrosinase; 5 μM) | tyrosinase inhibitory activity (mushroom tyrosinase; 10 μM) [%] | tyrosinase inhibition (mushroom tyrosinase; 300 μM, positive control, Example 1) [%] | SMILES | cytotoxicity (MNT-1 cells [1]; 100 μM) | cytotoxicity (MNT-1 cells [1]; concentrations below 50 μM) | melanin production reduced to (NT set to 100%) (MNT-1 cells [2]; 50 μM) [%] | protein expression of tyrosinase, TRP-1, and TRP-2 ([3]; 50 μM) | expression levels of LC3-II, ATG5, and Beclin-1 ([4]; 50 μM) | ATG5 and Beclin-1 expression [4, 5] | P62 expression [4, 5] | ratio of LC3-II to LC3-I [4, 5] | cytotoxicity (MNT-1 cells [1]; approximately 25 μM and below) | melanin production reduced to (NT set to 100%) (MNT-1 cells [2]; 20 μM) [%] | protein expression of tyrosinase, TRP-1, and TRP-2 ([3]; 20 μM) | expression levels of LC3-II, ATG5, and Beclin-1 ([4]; 20 μM) | melanin production reduced by (NT set to 100%) (MNT-1 cells [2]; arbutin 1 mM)
29.82 | 30.27 | 51.12 | 49.04 | 68.81 |  | Oc1cc(O)c2c(c1)O[C@@]1(c3ccc(O)c(O)c3)Oc3cc(O)c4c(c3[C@@H]2[C@H]1O)O[C@H](c1ccc(O)c(O)c1)[C@H](O)C4 [procyanidin A2] | toxicity | no cytotoxicity | 72.3 | reduction | little to no significant change or only slight increases | slight increase | slight increase | remained similar to the control group |  |  |  |  | 
17.65 | 17.05 | 32.08 | 31.61 | 49.44 |  | O=c1c(O)c(-c2ccc(O)c(O)c2)oc2cc(O)cc(O)c12 [quercetin, 2-(3,4-dihydroxyphenyl)-3,5,7-trihydroxy-4H-chromen-4-one] |  |  |  |  |  |  |  |  | no cytotoxicity | 64.5 | reduction | little to no significant change or only slight increases | 
 |  |  |  |  | 58.79 | OC[C@H]1O[C@@H](Oc2ccc(O)cc2)[C@H](O)[C@@H](O)[C@@H]1O [arbutin, reference compound] |  |  |  |  |  |  |  |  |  |  |  |  | about 57.1%

From patent US20240197672A1, “COMPOSITION FOR INHIBITING SKIN PIGMENTATION THROUGH AUTOPHAGY ACTIVITY CONTAINING PROCYANIDIN A2 AND QUERCETIN, AS ACTIVE INGREDIENTS” (KYUNGPOOK NATIONAL UNIVERSITY INDUSTRY-ACADEMIC COOPERATION …, priority 2022, published 2024)
